Reference: PubChem BioAssay AID1506 (NMMLSC, 2009)
Active and inactive are the calls of the source. How the calls were made is not given here.

System: S. aureus strains, lipase production inhibition
Experiment: inhibition of S. aureus lipase production, S. aureus quorum sensing inhibitors, NM300, NM400, MRSA3757 (AID 1506)
Details: for inhibition: stronger effect = higher value
[1] = lipase inhibition, MRSA3757, at 12 µM
[2] = lipase inhibition, strain NM400, at 12 µM

Row | Compound | outcome (at 12 µM) | inhibition [1] | inhibition [2] | inhibition (at 30 µM) | inhibition (lipase inhibition, strain NM300, at 30 µM) | inhibition (at 6 µM) | inhibition (lipase inhibition, strain NM300, at 6 µM)
1 | CC1CCCN(C(C(=O)Nc2ccc3c(c2)OCCO3)c2ccccc2)C1 (stereo not given) | inactive; agr3 active | 0% | 68% |  |  |  | 
2 | CC1CCCN(C(C(=O)Nc2ccc3c(c2)OCO3)c2ccccc2)C1 (stereo not given) | inactive; agr3 active | 0% | 84% |  |  |  | 
3 | Cc1c(Cl)cccc1Nc1ccccc1C(=O)O |  |  |  | 80% | 90% |  | 
4 | CCc1oc2ccccc2c1C(=O)c1cc(Br)c(O)c(Br)c1 |  |  |  |  |  | 80% | 95%
